Laboratory results published in patent US20260053834A1, “COVALENT MODIFIERS OF AKT1 AND USES THEREOF” (Terremoto Biosciences, Inc., priority 2023, published 2026).

How the values were obtained:
AKT2 = target: T1, AKT2 (Homo sapiens, UniProt P31751); assay: Live cell target engagement by NanoBRET competitive probe displacement, AKT2; assay type: binding; conditions: transfected HEK293 cells, 2 h at 37° C., read-out: AKT2 IC50: GeoMean IC50
T1 construct: expressed in transfected cells; host or cells: HEK293
T1 sequence (P31751 whole entry): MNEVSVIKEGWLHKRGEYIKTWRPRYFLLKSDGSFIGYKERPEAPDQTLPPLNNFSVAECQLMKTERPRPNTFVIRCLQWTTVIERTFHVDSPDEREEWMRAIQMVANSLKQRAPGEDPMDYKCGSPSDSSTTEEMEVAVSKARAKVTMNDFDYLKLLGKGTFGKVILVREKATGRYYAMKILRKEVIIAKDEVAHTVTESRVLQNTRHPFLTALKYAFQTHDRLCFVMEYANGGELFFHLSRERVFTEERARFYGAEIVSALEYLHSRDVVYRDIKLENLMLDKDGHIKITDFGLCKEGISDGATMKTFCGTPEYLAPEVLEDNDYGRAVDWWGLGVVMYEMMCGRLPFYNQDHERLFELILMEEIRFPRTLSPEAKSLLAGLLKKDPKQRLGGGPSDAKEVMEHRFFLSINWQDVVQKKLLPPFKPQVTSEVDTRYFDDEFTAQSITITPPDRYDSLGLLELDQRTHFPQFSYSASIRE

AKT1 WT = target: T2, AKT1 WT (Homo sapiens, UniProt P31749); assay: Live cell target engagement by NanoBRET competitive probe displacement, AKT1 WT; assay type: binding; conditions: transfected HEK293 cells, 2 h at 37° C., read-out: AKT1 WT IC50: GeoMean IC50
T2 construct: expressed in transfected cells; host or cells: HEK293
T2 sequence (P31749 whole entry): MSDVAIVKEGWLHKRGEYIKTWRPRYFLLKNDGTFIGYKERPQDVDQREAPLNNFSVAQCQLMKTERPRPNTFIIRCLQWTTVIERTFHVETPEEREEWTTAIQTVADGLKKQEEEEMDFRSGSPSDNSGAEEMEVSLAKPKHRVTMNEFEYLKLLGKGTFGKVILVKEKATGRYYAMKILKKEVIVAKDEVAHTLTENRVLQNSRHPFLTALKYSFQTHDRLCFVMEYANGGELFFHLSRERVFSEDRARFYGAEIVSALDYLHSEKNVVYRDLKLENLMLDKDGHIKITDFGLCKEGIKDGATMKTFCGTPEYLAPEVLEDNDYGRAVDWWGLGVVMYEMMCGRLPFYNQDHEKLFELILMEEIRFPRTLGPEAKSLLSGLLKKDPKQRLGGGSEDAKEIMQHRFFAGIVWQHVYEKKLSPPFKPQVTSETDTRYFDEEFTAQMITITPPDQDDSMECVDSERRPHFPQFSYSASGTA

[1] = test system: LAPC4 prostate cancer cells, which express the AKT1 E17K allele; assay: Antiproliferative effects in LAPC4 cells (CellTiter Glo, 72 h); assay type: cell-based; conditions: Homo sapiens, LAPC4, 72 h, read-out: LAPC4 proliferation IC50: GeoMean IC50
Method in brief: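 IC50 values come from Hill-equation fitting of luminescence (cellular ATP) after 72 h compound exposure. Treated wells held 1,000 cells each, with compound delivered as DMSO dilutions. Culture medium was IMDM plus 12% FBS.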

AKT1 E17K = target: T3, AKT1 E17K (Homo sapiens, UniProt P31749, E17K); assay: Live cell target engagement by NanoBRET competitive probe displacement, AKT1 E17K; assay type: binding; conditions: transfected HEK293 cells, 2 h at 37° C., read-out: AKT1 E17K IC50: GeoMean IC50
T3 construct: expressed in transfected cells; host or cells: HEK293
T3 sequence (P31749 whole entry E17K): as the sequence (P31749 whole entry) above, with E17K counted along it

IC50 (AKT2) [µM] | IC50 (AKT1 WT) [µM] | IC50 [1] [µM] | IC50 (AKT1 E17K) [µM] | SMILES
0.1 to 2 | 0.01 to 0.1 | 0.1 to 2 | 0.01 to 0.1 | Nc1cc(O)c(C=O)cc1C(=O)N[C@H]1CCc2cc(-n3c(-c4cccnc4N)nc4ccc(-n5cccn5)nc43)ccc21 [Example 237, 2-amino-N-[(1S)-5-[2-(2-aminopyridin-3-yl)-5-(pyrazol-1-yl)imidazo[4,5-b]pyridin-3-yl]-2,3-dihydro-1H-inden-1-yl]-5-formyl-4-hydroxybenzamide]
≥ 2 | 0.1 to 2 | ≥ 2 | ≥ 2 | Nc1ncccc1-c1nc2ccc(-c3ccccc3)nc2n1-c1ccc2c(c1)CC[C@@H]2NC(=O)c1cc(C=O)c(O)cn1 [Example 40, N-[(1S)-5-[2-(2-aminopyridin-3-yl)-5-phenylimidazo[4,5-b]pyridin-3-yl]-2,3-dihydro-1H-inden-1-yl]-4-formyl-5-hydroxypyridine-2-carboxamide]
0.01 to 0.1 | < 0.01 | < 0.01 | < 0.01 | CN(C)C(=O)Nc1ccc(C(=O)N[C@H]2CCc3cc(-n4c(-c5cccnc5N)nc5ccc(-c6ccccc6)nc54)ccc32)cc1C=O [Example 63, (S)—N-(5-(2-(2-aminopyridin-3-yl)-5-phenyl-3H-imidazo[4,5-b]pyridin-3-yl)-2,3-dihydro-1H-inden-1-yl)-4-(3,3-dimethylureido)-3-formylbenzamide]
0.1 to 2 | 0.01 to 0.1 | 0.01 to 0.1 | 0.01 to 0.1 | COc1cnc(-c2ccc3nc(-c4cccnc4N)n(-c4ccc5c(c4)CC[C@@H]5NC(=O)c4ccc(O)c(C=O)c4)c3n2)cn1 [Example 71, (S)—N-(5-(2-(2-aminopyridin-3-yl)-5-(5-methoxypyrazin-2-yl)-3H-imidazo[4,5-b]pyridin-3-yl)-2,3-dihydro-1H-inden-1-yl)-3-formyl-4-hydroxybenzamide]
0.01 to 0.1 | 0.01 to 0.1 | 0.01 to 0.1 | 0.01 to 0.1 | Nc1ncccc1-c1nc2ccc(-c3ncc(F)s3)nc2n1-c1ccc2c(c1)CC[C@@H]2NC(=O)c1cc(C=O)c(O)c(F)c1F [Example 193, N-[(1S)-5-[2-(2-aminopyridin-3-yl)-5-(5-fluoro-1,3-thiazol-2-yl)imidazo[4,5-b]pyridin-3-yl]-2,3-dihydro-1H-inden-1-yl]-2,3-difluoro-5-formyl-4-hydroxybenzamide]
0.01 to 0.1 | < 0.01 | < 0.01 | < 0.01 | CN(C)c1nc2cc(C(=O)N[C@H]3CCc4cc(-n5c(-c6cccnc6N)nc6ccc(-n7cccn7)nc65)ccc43)cc(C=O)c2[nH]1 [Example 175, (S)—N-(5-(2-(2-aminopyridin-3-yl)-5-(1H-pyrazol-1-yl)-3H-imidazo[4,5-b]pyridin-3-yl)-2,3-dihydro-1H-inden-1-yl)-2-(dimethylamino)-7-formyl-1H-benzo[d]imidazole-5-carboxamide]
≥ 2 | 0.1 to 2 | 0.1 to 2 | 0.01 to 0.1 | Nc1ncccc1-c1nc2ccc(Br)nc2n1-c1ccc2c(c1)CC[C@@H]2NC(=O)c1ccc(O)c(C=O)c1 [Example 37, (S)—N-(5-(2-(2-aminopyridin-3-yl)-5-bromo-3H-imidazo[4,5-b]pyridin-3-yl)-2,3-dihydro-1H-inden-1-yl)-3-formyl-4-hydroxybenzamide]
